For the assay, the system named is ER-alpha MCF7. The assay can be described thus: ER-alpha MCF7 HCS EC50; stated as measured by in vitro cell proliferation assays of Examples 902 and 903. The following applies: Homo sapiens, MCF7, MCF7 cells; Table 2. The class given is cell-based. Put shortly:
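MCF7 cells seeded 1000-2000 cells/well for 16 h, then treated with nine-point 1:2 DMSO dilution series in quadruplicate at 37 °C, 5% CO2 for 4 days. Viable cells quantified by CellTiter-Glo ATP luminescence; EC50 calculated. Controls: fulvestrant at final 100 nM, DMSO 0.2% v/v.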

Regarding `CNS(=O)(=O)N1[C@H](c2ccc(OCCN3CC(CF)C3)cc2)c2[nH]c3ccccc3c2C[C@H]1C` [Example 313, (1R,3R)-1-[4-[2-[3-(fluoromethyl)azetidin-1-yl]ethoxy]phenyl]-N,3-dimethyl-1,3,4,9-tetrahydropyrido[3,4-b]indole-2-sulfonamide], the EC50 stood at 1 nM.
Consider `C[C@@H]1Cc2c([nH]c3ccccc23)[C@H](c2ccc(NC3CN(CCCF)C3)cc2)N1S(C)(=O)=O` [Example 314, 1-(3-fluoropropyl)-N-[4-[(1S,3R)-3-methyl-2-methylsulfonyl-1,3,4,9-tetrahydropyrido[3,4-b]indol-1-yl]phenyl]azetidin-3-amine], for which the EC50 amounted to 9 nM.
On to `C[C@@H]1Cc2c([nH]c3ccccc23)[C@H](c2c(F)cc(NC3CN(CCCF)C3)cc2F)N1S(C)(=O)=O` [Example 315, N-[3,5-difluoro-4-[(1S,3R)-3-methyl-2-methylsulfonyl-1,3,4,9-tetrahydropyrido[3,4-b]indol-1-yl]phenyl]-1-(3-fluoropropyl)azetidin-3-amine], for which the EC50 came out at 2 nM.
For `C[C@@H]1Cc2c([nH]c3ccccc23)[C@@H](c2c(F)cc(OC3CN(CCCF)C3)cc2F)N1CC(C)(C)C#N` [Example 316, 3-[(1R,3R)-1-[2,6-difluoro-4-[1-(3-fluoropropyl)azetidin-3-yl]oxy-phenyl]-3-methyl-1,3,4,9-tetrahydropyrido[3,4-b]indol-2-yl]-2,2-dimethyl-propanenitrile], the EC50 came out at 0.0724 nM.
For `C[C@@H]1Cc2c([nH]c3ccccc23)[C@@H](c2c(F)cc(OC3CN(CC=C(F)F)C3)cc2F)N1CC(C)(C)F` [Example 317, (1R,3R)-1-[4-[1-(3,3-difluoroallyl)azetidin-3-yl]oxy-2,6-difluoro-phenyl]-2-(2-fluoro-2-methyl-propyl)-3-methyl-1,3,4,9-tetrahydropyrido[3,4-b]indole] the value was 0.181 nM.
For `C[C@@H]1Cc2c([nH]c3ccccc23)[C@@H](c2c(F)cc(OCCN3CC(CF)C3)cc2F)N1C[C@@H](CO)C(F)(F)F` [Example 318, (S)-2-(((1R,3R)-1-(2,6-difluoro-4-(2-(3-(fluoromethyl)azetidin-1-yl)ethoxy)phenyl)-3-methyl-1,3,4,9-tetrahydro-2H-pyrido[3,4-b]indol-2-yl)methyl)-3,3,3-trifluoropropan-1-ol], the EC50 is 1 nM.
With `C[C@@H]1Cc2c([nH]c3ccccc23)[C@@H](c2c(F)cc(OCCN3CC(CF)C3)cc2F)N1C[C@H](CO)C(F)(F)F` [Example 319, (R)-2-(((1R,3R)-1-(2,6-difluoro-4-(2-(3-(fluoromethyl)azetidin-1-yl)ethoxy)phenyl)-3-methyl-1,3,4,9-tetrahydro-2H-pyrido[3,4-b]indol-2-yl)methyl)-3,3,3-trifluoropropan-1-ol], the EC50 turned out to be 0.43 nM.
For `C[C@@H]1Cc2c([nH]c3ccccc23)[C@@H](c2c(F)cc(NCCN3CC(CF)C3)cc2F)N1CC(C)(F)CO` (stereo partly drawn) [Example 320, 3-((1R,3R)-1-(2,6-difluoro-4-((2-(3-(fluoromethyl)azetidin-1-yl)ethyl)amino)phenyl)-3-methyl-1,3,4,9-tetrahydro-2H-pyrido[3,4-b]indol-2-yl)-2-fluoro-2-methylpropan-1-ol] the value was 0.27 nM; for `C[C@@H]1Cc2c([nH]c3ccccc23)[C@@H](c2c(F)cc(NCCN3CC(CF)C3)cc2F)N1CC(C)(C)F` [Example 321, 3,5-difluoro-N-[2-[3-(fluoromethyl)azetidin-1-yl]ethyl]-4-[(1R,3R)-2-(2-fluoro-2-methyl-propyl)-3-methyl-1,3,4,9-tetrahydropyrido[3,4-b]indol-1-yl]aniline], 0.222 nM.
The result for `C[C@@H]1Cc2c([nH]c3ccccc23)[C@@H](c2ccc(NCCN3CC(CF)C3)cc2F)N1CC(C)(C)F` [Example 322, 3-fluoro-N-[2-[3-(fluoromethyl)azetidin-1-yl]ethyl]-4-[(1R,3R)-2-(2-fluoro-2-methyl-propyl)-3-methyl-1,3,4,9-tetrahydropyrido[3,4-b]indol-1-yl]aniline] reads 0.0253 nM.

As a reminder, the EC50 is the concentration at which the effect is half-maximal.

(Values after patent publication US20250114338A1, “TETRAHYDRO-PYRIDO[3,4-b]INDOLE ESTROGEN RECEPTOR MODULATORS AND USES THEREOF” (Genentech, Inc., priority 2014, published 2025).)
